From PubChem BioAssay (NCI)
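Cultured in 96-well plates, cells were exposed to test compound for 48 hours across five concentrations. The concentration for full growth arrest is given as TGI.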

Key:
Assay in all cases: NCI tumour cell line growth inhibition, 48 h
[1] = system: 786-0 renal
[2] = system: A498 renal
[3] = system: A549 NSCLC
[4] = system: ACHN renal
[5] = system: BT-549 breast
[6] = system: CAKI-1 renal
[7] = system: CCRF-CEM leukemia
[8] = system: COLO 205 colon
[9] = system: DLD-1 colon
[10] = system: DMS 114 small cell lung
[11] = system: DMS 273 small cell lung
[12] = system: DU-145 prostate
[13] = system: EKVX NSCLC
[14] = system: HCC-2998 colon
[15] = system: HCT-116 colon
[16] = system: HCT-15 colon
[17] = system: HL-60(TB) leukemia
[18] = system: HOP-18 NSCLC
[19] = system: HOP-62 NSCLC
[20] = system: HOP-92 NSCLC
[21] = system: HS 578T breast
[22] = system: HT29 colon
[23] = system: IGROV1 ovarian
[24] = system: K-562 leukemia
[25] = system: KM12 colon
[26] = system: KM20L2 colon
[27] = system: LOX IMVI melanoma
[28] = system: LXFL 529 NSCLC
[29] = system: M14 melanoma
[30] = system: M19-MEL melanoma
[31] = system: MALME-3M melanoma
[32] = system: MCF7 breast
[33] = system: MDA-MB-231 breast
[34] = system: MDA-MB-435
[35] = system: MDA-N
[36] = system: MOLT-4 leukemia
[37] = system: NCI-H226 lung
[38] = system: NCI-H23 lung
[39] = system: NCI-H460 lung
[40] = system: NCI-H522 lung
[41] = system: NCI/ADR-RES ovarian
[42] = system: OVCAR-3 ovarian
[43] = system: OVCAR-4 ovarian
[44] = system: OVCAR-5 ovarian
[45] = system: OVCAR-8 ovarian
[46] = system: PC-3 prostate
[47] = system: RPMI-8226 leukemia
[48] = system: RXF 393 renal
[49] = system: SF-268 CNS
[50] = system: SF-295 CNS
[51] = system: SF-539 CNS
[52] = system: SK-MEL-2 melanoma
[53] = system: SK-MEL-28 melanoma
[54] = system: SK-MEL-5 melanoma
[55] = system: SK-OV-3 ovarian
[56] = system: SN12C renal
[57] = system: SNB-19 CNS
[58] = system: SNB-75 CNS
[59] = system: SNB-78 CNS
[60] = system: SR leukemia
[61] = system: SW-620 colon
[62] = system: T-47D breast
[63] = system: TK-10 renal
[64] = system: U251 CNS
[65] = system: UACC-257 melanoma
[66] = system: UACC-62 melanoma
[67] = system: UO-31 renal
[68] = system: XF 498 CNS
[69] = system: RXF-631 renal

## COc1cc2cc3c4cc(OC)c(OC)cc4cc[n+]3c(C)c2cc1OC (tested in a mixture with another compound)
[1]
  TGI: > 100 µM
[2]
  TGI: > 100 µM
[3]
  TGI: > 100 µM
[4]
  TGI: > 100 µM
[5]
  TGI: > 100 µM
[6]
  TGI: > 100 µM
[7]
  TGI: > 100 µM
[8]
  TGI: > 87.9 µM
[9]
  TGI: > 100 µM
[10]
  TGI: > 100 µM
[11]
  TGI: > 100 µM
[12]
  TGI: > 100 µM
[13]
  TGI: > 100 µM
[14]
  TGI: > 100 µM
[15]
  TGI: > 100 µM
[16]
  TGI: > 100 µM
[17]
  TGI: > 100 µM
[18]
  TGI: > 100 µM
[19]
  TGI: > 100 µM
[20]
  TGI: > 100 µM
[21]
  TGI: > 100 µM
[22]
  TGI: > 69.1 µM
[23]
  TGI: > 100 µM
[24]
  TGI: > 100 µM
[25]
  TGI: > 100 µM
[26]
  TGI: > 100 µM
[27]
  TGI: > 100 µM
[28]
  TGI: > 100 µM
[29]
  TGI: > 100 µM
[30]
  TGI: > 100 µM
[31]
  TGI: > 100 µM
[32]
  TGI: > 100 µM
[33]
  TGI: > 100 µM
[34]
  TGI: > 100 µM
[35]
  TGI: > 100 µM
[36]
  TGI: > 100 µM
[37]
  TGI: > 45.6 µM
[38]
  TGI: > 100 µM
[39]
  TGI: > 100 µM
[40]
  TGI: > 100 µM
[41]
  TGI: > 100 µM
[42]
  TGI: > 100 µM
[43]
  TGI: > 100 µM
[44]
  TGI: > 100 µM
[45]
  TGI: > 100 µM
[46]
  TGI: > 100 µM
[47]
  TGI: > 100 µM
[48]
  TGI: > 100 µM
[49]
  TGI: > 95 µM
[50]
  TGI: > 100 µM
[51]
  TGI: > 100 µM
[52]
  TGI: > 100 µM
[53]
  TGI: > 100 µM
[54]
  TGI: > 100 µM
[55]
  TGI: > 100 µM
[56]
  TGI: > 100 µM
[57]
  TGI: > 100 µM
[58]
  TGI: > 88.3 µM
[59]
  TGI: > 92.9 µM
[60]
  TGI: > 100 µM
[61]
  TGI: > 100 µM
[62]
  TGI: > 100 µM
[63]
  TGI: > 100 µM
[64]
  TGI: > 100 µM
[65]
  TGI: > 55.5 µM
[66]
  TGI: > 100 µM
[67]
  TGI: > 100 µM
[68]
  TGI: > 100 µM

## CCCCCCc1cc(C(=O)Nc2ccc(Cl)cc2)nc(=S)[nH]1
[2]
  TGI: > 1 µM
[3]
  TGI: > 100 µM
[6]
  TGI: > 100 µM
[7]
  TGI: > 100 µM
[13]
  TGI: > 100 µM
[16]
  TGI: > 1 µM
[17]
  TGI: > 100 µM
[19]
  TGI: > 100 µM
[20]
  TGI: > 100 µM
[23]
  TGI: > 100 µM
[24]
  TGI: > 100 µM
[25]
  TGI: > 100 µM
[26]
  TGI: > 1 µM
[28]
  TGI: > 100 µM
[29]
  TGI: > 100 µM
[36]
  TGI: > 100 µM
[38]
  TGI: > 100 µM
[40]
  TGI: > 100 µM
[42]
  TGI: > 1 µM
[43]
  TGI: > 100 µM
[44]
  TGI: 85.8 µM
[47]
  TGI: > 100 µM
[69]
  TGI: > 100 µM
[51]
  TGI: > 100 µM
[52]
  TGI: > 100 µM
[54]
  TGI: > 100 µM
[55]
  TGI: > 100 µM
[56]
  TGI: > 100 µM
[57]
  TGI: > 1 µM
[60]
  TGI: > 100 µM
[61]
  TGI: > 100 µM
[64]
  TGI: > 100 µM
[65]
  TGI: > 100 µM
[67]
  TGI: > 100 µM
